Experimental findings from patent US10080365B2, “Use of strobilurin type compounds for combating phytopathogenic fungi resistant to Qo inhibitors” (BASF SE, priority 2011, dated 2018) are described below.

Molecules are shown by their SMILES. Some results are limits rather than exact numbers.

In experiment [1] the test system is Septoria tritici (Qo-inhibitor-resistant, G143A mutant). Put plainly: Microtiter test, Septoria tritici Qo-inhibitor-resistant G143A mutant (Use Example 1). Conditions: for IC50: microtiter test, Qo-inhibitor-resistant G143A mutant, turbidity at 620 nm, read-out: Resistant Septoria tritici isolate (G143A mutation) (R-IC50); for Resistance factor RF = R-IC50/S-IC50: ratio of IC50 for G143A resistant isolate to IC50 for wild-type sensitive isolate. In kind it is cell-based. The procedure: (§1) The active substances were formulated separately as a stock solution in dimethyl sulfoxide (DMSO) at a concentration of 10 000 ppm.
(§2) Activity against the Septoria blotch pathogen caused by Septoria tritici in the microtiter test
(§3) Fungal strains used: • a) Septoria tritici (Qo-inhibitor sensitive, wild-type) • b) Septoria tritici (Qo-inhibitor-resistant, G143A mutant)
(§4) 100 ml 2% Malt extract in water at pH6.8 were inoculated with microspores from 2 week old cultures grown on 2% malt extract+2% agar in Petri dishes and incubated for 3 days on a rotary shaker at 24° C. und 150 rpm. The culture was harvested, glycerol was added (15% (v/v) and kept frozen at −20° C. in aliquots of 1 ml.
(§5) 1 ml stock suspension was thawed and suspended into 800 ml of 2% malt extract in water at pH 6.8. Compounds were diluted from stock solution in (dimethylsulfoxide) DMSO in 10 steps. The compound solutions were diluted 1/5 with sterile deionized water before use. 5 μl of the compound solutions were transferred into empty microplates. The plates were then filled with 195 μl of the microspore suspension of each strain.
(§6) The antifungal activity was determined by measuring the turbidity of a culture in 96-well microplates in the presence of test compounds. Fungal growth was measured by recording the optical density at 620 nm every 15 h for 150 h. The relative antifungal activity was calculated by comparison of the effect of the test compounds with the effect of a DMSO control and a standard fungicide.
(§7) IC50-values (concentration of test compound resulting in 50% inhibition of fungal growth) were calculated from the resulting dose-response for each compound and strain. The initial concentration of the test compounds and the 10 steps of dilution (1:4 each) allowed IC50-values from 0.001 to 100 μmol/l (μM) to be assessed.

The subject of experiment [2] is Septoria tritici (Qo-inhibitor sensitive, wild-type). Briefly: Microtiter test, Septoria tritici Qo-inhibitor sensitive wild-type (Use Example 1). In kind it is cell-based. Conditions: turbidity at 620 nm, read-out: Sensitive Septoria tritici isolate (wild type) (S-IC50). The procedure:
as §1, §2, §3, §4, §5, §6, §7

The IC50 is the concentration needed to halve the response being measured. With `CO/C=C(/C(=O)OC)c1ccccc1Oc1cc(Oc2ccccc2C#N)ncn1` [Azoxystrobin, reference compound], the IC50 in experiment [1] is more than 100 µM; in experiment [2], 3.5 µM.

Consider `CON=C(C(=O)OC)C(C)=CCOc1ccn(-c2ccc(Cl)cc2)n1` [Compound I-5], for which, in experiment [1], the IC50 was determined as 2.2 µM and the “Resistance factor RF = R-IC50/S-IC50” value is reported as 26. Further, in experiment [2], the IC50 turned out to be 0.083 µM.

Take `C=CCON=C(C)c1cc(C)c(OCC=C(C)C(=NOC)C(=O)NC)cc1C` [Compound I-82]: in experiment [1], the IC50 came to 6.8 µM and the “Resistance factor RF = R-IC50/S-IC50” value is on record as 6. Moreover, in experiment [2], the IC50 is 1.1 µM.

For the compound `C=CCON=C(C)c1ccc(OCC=C(C)C(=NOC)C(=O)NC)c(C)c1` [Compound I-83], in experiment [1], the IC50 is 7.6 µM and the “Resistance factor RF = R-IC50/S-IC50” value amounted to 4.6. Besides, the IC50 in experiment [2] stood at 1.6 µM.

Take `C=C(Cl)CON=C(C)c1cc(C)c(OCC=C(C)C(=NOC)C(=O)NC)cc1C` [Compound I-84]: in experiment [1], the IC50 turned out to be 16.1 µM and the “Resistance factor RF = R-IC50/S-IC50” value is on record as 33. In experiment [2], the IC50 was 0.5 µM.

Turning to `C=C(Cl)CON=C(C)c1ccc(OCC=C(C)C(=NOC)C(=O)NC)c(C)c1` [Compound I-85], in experiment [1], the IC50 is 22 µM and the “Resistance factor RF = R-IC50/S-IC50” value is on record as 29. The IC50 in experiment [2] stood at 0.8 µM.

As for `CC=CCON=C(C)c1cc(C)c(OCC=C(C)C(=NOC)C(=O)NC)cc1C` [Compound I-90], in experiment [1], the IC50 is 26 µM and the “Resistance factor RF = R-IC50/S-IC50” value amounted to 26. The IC50 in experiment [2] turned out to be 1 µM.

For `CC=CCON=C(C)c1ccc(OCC=C(C)C(=NOC)C(=O)NC)c(C)c1` [Compound I-91], in experiment [1], the IC50 was found to be 27 µM and the “Resistance factor RF = R-IC50/S-IC50” value was found to be 17. For the same compound, the IC50 in experiment [2] came out at 1.6 µM.

In the case of `C=CCON=C(C)c1cc(C)c(OCC=C(C)C(=NOC)C(=O)OC)cc1C` [Compound I-94], in experiment [1], the concentration for half-maximal inhibition (IC50) amounted to 12 µM and the “Resistance factor RF = R-IC50/S-IC50” value worked out at 22. The IC50 in experiment [2] is 0.6 µM.

For the compound `C=CCON=C(C)c1ccc(OCC=C(C)C(=NOC)C(=O)OC)c(C)c1` [Compound I-95], in experiment [1], the IC50 was determined as 29 µM and the “Resistance factor RF = R-IC50/S-IC50” value was found to be 14. In experiment [2], the IC50 stood at 2.2 µM.

As for `C=C(Cl)CON=C(C)c1ccc(OCC=C(C)C(=NOC)C(=O)OC)c(C)c1` [Compound I-97], in experiment [1], the IC50 came to 49 µM and the “Resistance factor RF = R-IC50/S-IC50” value is 29. For the same compound, the IC50 in experiment [2] worked out at 1.7 µM.

With `CCON=C(C)c1ccc(OCC=C(C)C(=NOC)C(=O)OC)c(C)c1` [Compound I-191], the figures for the IC50 in experiment [1] and in experiment [2] were 37 µM and 1.3 µM, respectively. Besides, in experiment [1], the “Resistance factor RF = R-IC50/S-IC50” value came out at 29.

Turning to `Cc1cc(-n2cccn2)ccc1OCc1ccccc1-n1nnn(C)c1=O` [Compound I-212], in experiment [1], the IC50 came to 8.3 µM and the “Resistance factor RF = R-IC50/S-IC50” value is recorded as 6. In addition, in experiment [2], the IC50 is 1.4 µM.

As for `CC(=NOCc1ccccc1-n1nnn(C)c1=O)c1cccc(-c2cnn(-c3ccccc3)c2)c1` [Compound I-213], in experiment [1], the IC50 worked out at 0.057 µM and the “Resistance factor RF = R-IC50/S-IC50” value was found to be 0.7. Besides, in experiment [2], the IC50 came out at 0.076 µM.

For the compound `C/C(=N\OC/C=C/Cl)c1ccc(OCc2ccccc2-n2nnn(C)c2=O)c(C)c1` [Compound I-217], in experiment [1], the IC50 was found to be 63 µM and the “Resistance factor RF = R-IC50/S-IC50” value was 10. Also, the IC50 in experiment [2] worked out at 6.3 µM.

`C=CCO/N=C(\C)c1ccc(OCc2ccccc2-n2nnn(C)c2=O)c(C)c1` [Compound I-218]: the IC50 was 79 µM in experiment [1] and 5.6 µM in experiment [2]. The “Resistance factor RF = R-IC50/S-IC50” value in experiment [1] is 14.

As to `C#CCO/N=C(\C)c1ccc(OCc2ccccc2-n2nnn(C)c2=O)c(C)c1` [Compound I-221], the IC50 in experiment [1] worked out at 10 µM; in experiment [2], 3.4 µM. Also, in experiment [1], the “Resistance factor RF = R-IC50/S-IC50” value amounted to 3.

As for `C/C(=N\OC/C=C/Cl)c1cc(C)c(OCc2ccccc2-n2nnn(C)c2=O)cc1C` [Compound I-223], in experiment [1], the 50% inhibitory concentration (IC50) amounted to 19 µM and the “Resistance factor RF = R-IC50/S-IC50” value amounted to 7. For the same compound, the IC50 in experiment [2] turned out to be 2.7 µM.

Regarding `C=CCO/N=C(\C)c1cc(C)c(OCc2ccccc2-n2nnn(C)c2=O)cc1C` [Compound I-224], the IC50 in experiment [1] turned out to be 5.4 µM; in experiment [2], 1.7 µM. Moreover, the “Resistance factor RF = R-IC50/S-IC50” value in experiment [1] was 3.2.

As for `C/C=C/CO/N=C(\C)c1cc(C)c(OCc2ccccc2-n2nnn(C)c2=O)cc1C` [Compound I-225], in experiment [1], the IC50 was 72 µM and the “Resistance factor RF = R-IC50/S-IC50” value is 21. The IC50 in experiment [2] turned out to be 3.4 µM.

As to `C/C(=N\OC/C=C\Cl)c1cc(C)c(OCc2ccccc2-n2nnn(C)c2=O)cc1C` [Compound I-228], in experiment [1], the IC50 is 10 µM and the “Resistance factor RF = R-IC50/S-IC50” value is listed as 3.0. Further, the IC50 in experiment [2] was 3.4 µM.

On to `CC(Cc1ccc(Cl)cc1)=NOCc1ccccc1-n1nnn(C)c1=O` [Compound I-230], for which the results for the IC50 in experiment [1] and in experiment [2] were 25 µM and 3.2 µM, respectively. Also, in experiment [1], the “Resistance factor RF = R-IC50/S-IC50” value was 8.

Consider `CO/N=C(\C)c1ccc(OCc2ccccc2-n2nnn(C)c2=O)c(C)c1` [Compound I-233], for which the IC50 in experiment [1] was determined as 2.7 µM; in experiment [2] it was 0.24 µM. Also, the “Resistance factor RF = R-IC50/S-IC50” value in experiment [1] was determined as 12.

In the case of `CCC/C(=N\OC)c1cc(C)c(OCc2ccccc2-n2nnn(C)c2=O)cc1C` [Compound I-234], the IC50 is 4 µM in experiment [1] and 2.4 µM in experiment [2]. The “Resistance factor RF = R-IC50/S-IC50” value in experiment [1] is 1.7.

`CCC/C(=N\OC)c1ccc(OCc2ccccc2-n2nnn(C)c2=O)c(C)c1` [Compound I-235]: in experiment [1], the IC50 is 51 µM and the “Resistance factor RF = R-IC50/S-IC50” value came out at 4. Further, the IC50 in experiment [2] was determined as 13 µM.

Consider `CCON=C(c1ccc(OCc2ccccc2-n2nnn(C)c2=O)c(C)c1)C1CC1` [Compound I-236], for which, in experiment [1], the IC50 amounted to 24 µM and the “Resistance factor RF = R-IC50/S-IC50” value is 4. In experiment [2], the IC50 amounted to 6 µM.

As to `CCON=C(CC)c1ccc(OCc2ccccc2-n2nnn(C)c2=O)c(C)c1` [Compound I-238], the IC50 amounted to 12 µM in experiment [1] and 6 µM in experiment [2]. Also, the “Resistance factor RF = R-IC50/S-IC50” value in experiment [1] stood at 1.9.

Take `Cn1nnn(-c2ccccc2COc2nn(-c3ccc(Cl)cc3)cc2Cl)c1=O` [Compound I-243]: in experiment [1], the IC50 was determined as 15 µM and the “Resistance factor RF = R-IC50/S-IC50” value worked out at 3.6. Moreover, the IC50 in experiment [2] came out at 4.1 µM.

Regarding `Cc1cn(-c2ccc(Cl)cc2)nc1OCc1ccccc1-n1nnn(C)c1=O` [Compound I-244], in experiment [1], the IC50 is 1.3 µM and the “Resistance factor RF = R-IC50/S-IC50” value was determined as 2.0. Further, in experiment [2], the IC50 came to 0.6 µM.

Turning to `Cn1nnn(-c2ccccc2COc2ccn(-c3cccc(C(F)(F)F)c3)n2)c1=O` [Compound I-247], in experiment [1], the IC50 was determined as 9 µM and the “Resistance factor RF = R-IC50/S-IC50” value was determined as 1.9. The IC50 in experiment [2] was 5 µM.

For the compound `CCON=C(C)c1ccc(OCc2ccccc2-n2nnn(C)c2=O)c(C)c1` [Compound I-249], in experiment [1], the half-inhibitory concentration (IC50) turned out to be 11 µM and the “Resistance factor RF = R-IC50/S-IC50” value was 5. Further, the IC50 in experiment [2] amounted to 2.4 µM.

As for `CCCC(=NOCC)c1cc(C)c(OCc2ccccc2-n2nnn(C)c2=O)cc1C` [Compound I-250], in experiment [1], the IC50 came to 97 µM and the “Resistance factor RF = R-IC50/S-IC50” value is 5. Further, the IC50 in experiment [2] was 19 µM.
